According to the supplement of paper PMC11208160:

assay: recombinant barcode read abundance after kanamycin selection (control-corrected) (log10(CPM+1)); higher = more efficient recombination; sequences stand for … in AGTGCAGAGAAAATCGGCCAGTTTTCTCTGCCTGCAGTCCGCATGCCGT…ATTTATGCAGCGGACTGCCTTTCTCCCAAAGTGATAAACCGGACAGTATCATGGACCGGTTTTCCCGGTAATCCGTATTTGCAAGGTTGGTTTCACT; site = the 11-nt target
Description: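 Same pooled E. coli target screen (IS621 bridge recombinase, kanamycin selection, control-corrected CPM, mean of 2 biological replicates). Here the two core-binding nucleotides of the LTG and RTG of the bridge RNA target-binding loop are mutated. Target and donor CT cores are held constant, and the other 9 guide positions match the target. The target is read from the library oligo sequence. Molecule = full bridge RNA written as DNA: nt 1-80 from the library oligo, rest WT scaffold.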

Sequence | recombinant barcode read abundance (log10)
GAGTCCTATTGGGTTCTAACCTGTTGCCTAT [GAGTCCTCTAG_LTGcore_AT_RTGcore_AT] (site GAGTCCTCTAG) (LTG core: AT, RTG core: AT) | 0.0431
TCTACCCCATGGGTTCTAACCTGTTGCTGTG [TCTACCCCTCA_LTGcore_CA_RTGcore_CA] (site TCTACCCCTCA) (LTG core: CA, RTG core: CA) | 0.0357
GAGGCCTGATGGGTTCTAACCTGTTGCCATC [GAGGCCTCTTG_LTGcore_GA_RTGcore_GA] (site GAGGCCTCTTG) (LTG core: GA, RTG core: GA) | 0.231
TAGAGGGTCTGGGTTCTAACCTGTTGCGGGA [TAGAGGGCTCC_LTGcore_TC_RTGcore_TC] (site TAGAGGGCTCC) (LTG core: TC, RTG core: TC) | 0.0922
AGGAGGTGGTGGGTTCTAACCTGTTGCCTCC [AGGAGGTCTAG_LTGcore_GG_RTGcore_GG] (site AGGAGGTCTAG) (LTG core: GG, RTG core: GG) | 0.0671
GGCTCCCCTTGGGTTCTAACCTGTTGCGGCA [GGCTCCCCTCC_LTGcore_CT_RTGcore_TG] (site GGCTCCCCTCC) (LTG core: CT, RTG core: TG) | 0.426
GAGTCCACTTGGGTTCTAACCTGTTGCGTGA [GAGTCCACTAC_LTGcore_CT_RTGcore_TC] (site GAGTCCACTAC) (LTG core: CT, RTG core: TC) | 0.116
TAGAGGGCATGGGTTCTAACCTGTTGCGGAG [TAGAGGGCTCC_LTGcore_CA_RTGcore_CT] (site TAGAGGGCTCC) (LTG core: CA, RTG core: CT) | 2.42
AGGCGGGAGTGGGTTCTAACCTGTTGCGGAG [AGGCGGGCTCC_LTGcore_AG_RTGcore_CT] (site AGGCGGGCTCC) (LTG core: AG, RTG core: CT) | 0.325
TCTACCCCTTGGGTTCTAACCTGTTGCTGCG [TCTACCCCTCA_LTGcore_CT_RTGcore_CG] (site TCTACCCCTCA) (LTG core: CT, RTG core: CG) | 0.0367
GGGCGGAGGTGGGTTCTAACCTGTTGCGGAG [GGGCGGACTCC_LTGcore_GG_RTGcore_CT] (site GGGCGGACTCC) (LTG core: GG, RTG core: CT) | 0.0907
TGATACCCTTGGGTTCTAACCTGTTGCGTCG [TGATACCCTAC_LTGcore_CT_RTGcore_CG] (site TGATACCCTAC) (LTG core: CT, RTG core: CG) | 0.0319
AGGCGGGTCTGGGTTCTAACCTGTTGCGGGA [AGGCGGGCTCC_LTGcore_TC_RTGcore_TC] (site AGGCGGGCTCC) (LTG core: TC, RTG core: TC) | 0.156
CGCGCCCCTTGGGTTCTAACCTGTTGCGGAT [CGCGCCCCTCC_LTGcore_CT_RTGcore_AT] (site CGCGCCCCTCC) (LTG core: CT, RTG core: AT) | 0.243
TCGCGACACTGGGTTCTAACCTGTTGCCGAG [TCGCGACCTCG_LTGcore_AC_RTGcore_CT] (site TCGCGACCTCG) (LTG core: AC, RTG core: CT) | 0.0715
GGTGCCCCTTGGGTTCTAACCTGTTGCCGAG [GGTGCCCCTCG_LTGcore_CT_RTGcore_CT] (site GGTGCCCCTCG) (LTG core: CT, RTG core: CT) | 1.46
CGCGCCCCTTGGGTTCTAACCTGTTGCGGTT [CGCGCCCCTCC_LTGcore_CT_RTGcore_AA] (site CGCGCCCCTCC) (LTG core: CT, RTG core: AA) | 0.146
ATGTCCCTTTGGGTTCTAACCTGTTGCTCAA [ATGTCCCCTGA_LTGcore_TT_RTGcore_TT] (site ATGTCCCCTGA) (LTG core: TT, RTG core: TT) | 0.0472
GGGAGCCCATGGGTTCTAACCTGTTGCTGTG [GGGAGCCCTCA_LTGcore_CA_RTGcore_CA] (site GGGAGCCCTCA) (LTG core: CA, RTG core: CA) | 0.536
GGACACCGTTGGGTTCTAACCTGTTGCCTAG [GGACACCCTAG_LTGcore_GT_RTGcore_CT] (site GGACACCCTAG) (LTG core: GT, RTG core: CT) | 0.32
GAGCCCAACTGGGTTCTAACCTGTTGCCTGT [GAGCCCACTAG_LTGcore_AC_RTGcore_AC] (site GAGCCCACTAG) (LTG core: AC, RTG core: AC) | 0.199
AAACACAACTGGGTTCTAACCTGTTGCCTAG [AAACACACTAG_LTGcore_AC_RTGcore_CT] (site AAACACACTAG) (LTG core: AC, RTG core: CT) | 0.0236

Sequence | recombinant barcode read abundance (log10)
GAGTCCAAATGGGTTCTAACCTGTTGCGTAG [GAGTCCACTAC_LTGcore_AA_RTGcore_CT] (site GAGTCCACTAC) (LTG core: AA, RTG core: CT) | 0.0292
CGGTCCCCTTGGGTTCTAACCTGTTGCCAGC [CGGTCCCCTTG_LTGcore_CT_RTGcore_GC] (site CGGTCCCCTTG) (LTG core: CT, RTG core: GC) | 0.178
ATGTCCCACTGGGTTCTAACCTGTTGCTCAG [ATGTCCCCTGA_LTGcore_AC_RTGcore_CT] (site ATGTCCCCTGA) (LTG core: AC, RTG core: CT) | 0.172
AGGCCTCATTGGGTTCTAACCTGTTGCCTAG [AGGCCTCCTAG_LTGcore_AT_RTGcore_CT] (site AGGCCTCCTAG) (LTG core: AT, RTG core: CT) | 0.254
GGGAGCCAGTGGGTTCTAACCTGTTGCTGCT [GGGAGCCCTCA_LTGcore_AG_RTGcore_AG] (site GGGAGCCCTCA) (LTG core: AG, RTG core: AG) | 0.523
TAAGAATCTTGGGTTCTAACCTGTTGCCTGG [TAAGAATCTAG_LTGcore_CT_RTGcore_CC] (site TAAGAATCTAG) (LTG core: CT, RTG core: CC) | 0.39
AGGCGGTCTTGGGTTCTAACCTGTTGCTTAC [AGGCGGTCTAA_LTGcore_CT_RTGcore_GT] (site AGGCGGTCTAA) (LTG core: CT, RTG core: GT) | 1.26
TCTACCCCTTGGGTTCTAACCTGTTGCTGTT [TCTACCCCTCA_LTGcore_CT_RTGcore_AA] (site TCTACCCCTCA) (LTG core: CT, RTG core: AA) | 0.07
GCGGGACGTTGGGTTCTAACCTGTTGCCTAG [GCGGGACCTAG_LTGcore_GT_RTGcore_CT] (site GCGGGACCTAG) (LTG core: GT, RTG core: CT) | 0.0984
GGGCGGATATGGGTTCTAACCTGTTGCGGTA [GGGCGGACTCC_LTGcore_TA_RTGcore_TA] (site GGGCGGACTCC) (LTG core: TA, RTG core: TA) | 0.0888
GCGGGACCTTGGGTTCTAACCTGTTGCCTCA [GCGGGACCTAG_LTGcore_CT_RTGcore_TG] (site GCGGGACCTAG) (LTG core: CT, RTG core: TG) | 0.682
TCGCGACCTTGGGTTCTAACCTGTTGCCGGG [TCGCGACCTCG_LTGcore_CT_RTGcore_CC] (site TCGCGACCTCG) (LTG core: CT, RTG core: CC) | 0.283
GGCTCCCAGTGGGTTCTAACCTGTTGCGGCT [GGCTCCCCTCC_LTGcore_AG_RTGcore_AG] (site GGCTCCCCTCC) (LTG core: AG, RTG core: AG) | 0.206
GGTGCCCATTGGGTTCTAACCTGTTGCCGAG [GGTGCCCCTCG_LTGcore_AT_RTGcore_CT] (site GGTGCCCCTCG) (LTG core: AT, RTG core: CT) | 0.111
CGAGCCCGTTGGGTTCTAACCTGTTGCTGAG [CGAGCCCCTCA_LTGcore_GT_RTGcore_CT] (site CGAGCCCCTCA) (LTG core: GT, RTG core: CT) | 0.102
GAGTCCTCTTGGGTTCTAACCTGTTGCCTAT [GAGTCCTCTAG_LTGcore_CT_RTGcore_AT] (site GAGTCCTCTAG) (LTG core: CT, RTG core: AT) | 0.495
AGTCTTACTTGGGTTCTAACCTGTTGCCAGC [AGTCTTACTTG_LTGcore_CT_RTGcore_GC] (site AGTCTTACTTG) (LTG core: CT, RTG core: GC) | 0.13
GGGCGTGTGTGGGTTCTAACCTGTTGCCTCA [GGGCGTGCTAG_LTGcore_TG_RTGcore_TG] (site GGGCGTGCTAG) (LTG core: TG, RTG core: TG) | 0.0289
AGGCCTCCTTGGGTTCTAACCTGTTGCCTGT [AGGCCTCCTAG_LTGcore_CT_RTGcore_AC] (site AGGCCTCCTAG) (LTG core: CT, RTG core: AC) | 0.0115
TGTATTCGCTGGGTTCTAACCTGTTGCCTAG [TGTATTCCTAG_LTGcore_GC_RTGcore_CT] (site TGTATTCCTAG) (LTG core: GC, RTG core: CT) | 0.0931
TAAGAATCCTGGGTTCTAACCTGTTGCCTGG [TAAGAATCTAG_LTGcore_CC_RTGcore_CC] (site TAAGAATCTAG) (LTG core: CC, RTG core: CC) | 0.0748
AGTCTTACTTGGGTTCTAACCTGTTGCCACG [AGTCTTACTTG_LTGcore_CT_RTGcore_CG] (site AGTCTTACTTG) (LTG core: CT, RTG core: CG) | 0.0125
